These results are taken from publication PMC8205227 (ACS Infectious Diseases, 2021).

Molecules are shown by their SMILES. In brackets after ≈: the same amount, converted by molar mass. Like-named read-outs stand apart in the source and are kept apart here. Where only a bound is given, the exact number is not on record here.

One series concerns Mtb H37RvMA. As to the kind of experiment: microbe, parasite or virus in culture. Particulars: read-out: Mtb H37Rv MIC. It counts as cell-based, Mycobacterium tuberculosis.
The format of series [1] is in vitro ADME, mouse. Particulars: mouse, microsomes. From the text:
(§1) Compounds were profiled for HepG2 cytotoxicity, mouse liver microsomal clearance, and aqueous solubility, as previously described.[66]

In the next series the test system is HepG2 cells. The series is described as follows: HepG2 cytotoxicity. It counts as cell-based. Particulars: Homo sapiens.
Description: as §1

Series [2] in a line: physchem. The series is classed as physicochemical. The following applies: kinetic from dmso stock.
Description: as §1

The target in the next series is Mtb CoaB (Mycobacterium tuberculosis, UniProt P9WNZ1). The series is described as follows: BIOMOL Green end-point pyrophosphate quantification assay (high-throughput screen). The series is classed as biochemical. Particulars: BIOMOL Green pyrophosphate quantification assay.
Chain of Mtb CoaB (P9WNZ1 whole entry): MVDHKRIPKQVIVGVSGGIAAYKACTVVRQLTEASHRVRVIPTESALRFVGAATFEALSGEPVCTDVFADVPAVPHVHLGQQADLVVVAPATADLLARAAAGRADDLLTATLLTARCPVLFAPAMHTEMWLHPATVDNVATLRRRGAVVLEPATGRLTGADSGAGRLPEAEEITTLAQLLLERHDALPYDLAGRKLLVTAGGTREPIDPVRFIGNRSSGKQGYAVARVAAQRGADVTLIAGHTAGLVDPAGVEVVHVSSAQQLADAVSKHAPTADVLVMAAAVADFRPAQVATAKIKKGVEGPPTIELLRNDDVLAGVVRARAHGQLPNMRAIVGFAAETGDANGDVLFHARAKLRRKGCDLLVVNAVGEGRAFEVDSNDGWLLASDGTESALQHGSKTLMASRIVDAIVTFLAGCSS
A short description of series [3]: physchem. The series is classed as physicochemical. An excerpt: Table 1 SAR and In Vitro Profiling of Modifications to Compound 1a ^a | column: CHI LogD
The subject of a further series is pyrophosphatase. As to the kind of experiment: Counter-screen for false positives (pyrophosphatase inactivation). It counts as biochemical. How it is done:
Counter-screens carried out to exclude false positive compounds were performed in 50 μL reactions containing 0.5 U/mL pyrophosphatase and 2 μM pyrophosphate in 100 mM Tris-HCl, pH 7.6, buffer containing 1 mM MgCl2 and 1 mM TCEP for 2 h at room temperature in 384-well microplates (Greiner Bio-One). Control reactions were performed in the absence of the pyrophosphatase. The reactions were terminated by addition of 50 μL BIOMOL Green (Enzo Life Sciences), and product formation was measured by absorbance (650 nm) using a PHERAstar microplate reader (BMG Labtech) following incubation for 20 min. Liquid dispensing was performed using a Thermo Scientific Matrix Wellmate, and data were processed and analyzed using ActivityBase (IDBS).
Background: A counterscreen serves to expose hits that act by an unwanted route or on another target.

The term IC50 denotes the concentration needed to halve the response being measured. For orientation: kinetic solubility means the concentration staying in solution when a stock, usually in DMSO, is diluted into the medium. A word on the chromatographic logD: it is lipophilicity estimated from chromatographic retention. Low readings indicate a more hydrophilic compound, high ones a more lipophilic compound. Regarding `Cc1nn(-c2ccccc2)c(O)c1Sc1ccccc1` [Compound 1a, 4-Phenylsulfanyl-5-methyl-2-phenyl-pyrazol-3-ol], the MIC in the series on Mtb H37RvMA (Mycobacterium tuberculosis, H37RV) was over 125 µM; with Mtb H37RvMA it was over 125 µM. Further, the “Mouse Cli (intrinsic clearance)” value in series [1] is under 0.5 mL/min/g. Further, the figures for the half-maximal inhibitory concentration (IC50) with HepG2 cells and against Mtb CoaB were over 50 µM and 9.9 µM, respectively. Further, the solubility (kinetic) in the series “physchem [2]” is 219 µM (≈ 61.8 µg/mL). In addition, the chromatographic logD in the series “physchem [3]” turned out to be 0.4. Also, the “Activity in counter-screen for pyrophosphatase inactivation” value with pyrophosphatase was “inactivity”.
